# Source: patent US20210283053A1, “LIQUID FORMULATIONS OF GLUCAGON ANALOGUES” (Zealand Pharma A/S, priority 2020, published 2021)
# Tested on: RYGB-operated individuals with confirmed postprandial hypoglycaemia
# Assay: Crossover study with liquid mixed meal test, postprandial hypoglycaemia after Roux-en-Y gastric bypass
# Format: in vivo, human
# Conditions: for time spent in level 2 hypoglycaemia (<3.1 mmol/l): n=5, placebo 31.0±5; for nadir PG: placebo 3.0±0.2; for time spent in hypoglycaemia (<3.9 mmol/l): placebo 62.0±8; for PG incremental AUC (iAUC70-240 min) after drug administration: placebo 752±19, p<0.0001
# Text: Postprandial hypoglycaemia is a frequent and debilitating complication following Roux-en-Y gastric bypass (RYGB), and no effective treatment exists. In a proof-of-concept study, we investigated the effects of dasiglucagon, a novel, stable glucagon analogue, on postprandial hypoglycaemia after RYGB. The primary aim of the present study was to examine the effects of two doses of dasiglucagon on the postprandial nadir plasma glucose concentration (PG) and time spent in hypoglycaemia (<3.9 mmol/l) in RYGB-operated individuals with confirmed postprandial hypoglycaemia.
# Ten RYGB-operated individuals (two males, eight females; BMI 34.6 (21.8-39.0) kg/m^2; age 46 (29-67) years; HbA1c 32 (29-42) mmol/mol; time since operation 9.3 (6-11.5) years; weight loss since operation 53.9 (25.1-92.0) kg)) with confirmed symptomatic postprandial hypoglycaemia (PG<3.5 mmol/l verified by a 6-day continuous glucose monitoring) completed a double-blinded, randomised, crossover study comprising three separate treatment days, each including a standardised liquid mixed meal test (25 kJ per kg body mass; 50 E % carbohydrates, 35 E % fat and 15 E % protein). A subcutaneous injection of either placebo, 80 or 200 μg dasiglucagon (D80μg and D200μg) was administered after the postprandial PG peak, approximately 10 minutes before the projected time point where the PG returned to fasting levels using a subject-specific linear regression model. Blood sampling and assessment of hypoglycaemic symptoms, by the Edinburgh Hypoglycaemia Symptom Scale, were performed at fixed time intervals. Data were analysed using linear mixed models and Tukey's corrections model for multiple comparisons.
substance,measurement,setting,value
"Hy-HSQGTFTSDYSKYLD-Aib-ARAEEFVKWLEST-OH [Compound 1, glucagon analogue (dasiglucagon)]",time spent in level 2 hypoglycaemia (<3.1 mmol/l),"80 μg subcutaneous, p>0.05",7 ± 5 min
same,nadir PG,"80 μg subcutaneous, p=0.002",3.9 ± 0.3 mmol/L
same,time spent in hypoglycaemia (<3.9 mmol/l),"80 μg subcutaneous, p=0.05",27.5 ± 12 min
same,PG incremental AUC (iAUC70-240 min) after drug administration,80 μg subcutaneous,917 ± 22 mmol·min/L
same,participants who experienced level 2 hypoglycaemia (<3.1 mmol/l),"200 μg subcutaneous, five participants after placebo",none
same,time spent in level 2 hypoglycaemia (<3.1 mmol/l),"200 μg subcutaneous, p=0.01",0.0 ± 0 min
same,nadir PG,"200 μg subcutaneous, p=0.0002",4.5 ± 0.2 mmol/L
same,time spent in hypoglycaemia (<3.9 mmol/l),"200 μg subcutaneous, p=0.003",14.0 ± 9 min
same,PG incremental AUC (iAUC70-240 min) after drug administration,200 μg subcutaneous,992 ± 28 mmol·min/L
same,changes in hypoglycaemic symptoms (Edinburgh Hypoglycaemia Symptom Scale),"between the three study days (placebo, 80 and 200 μg)",no significant changes
